In ChEMBL document CHEMBL5370624 (J Med Chem, 2023):
The source made the active and inactive calls. The calls are words filed in the database; no cut-off is given here.

Columns and labels:
PBMC = experiment: Cytotoxicity against human PBMC cells assessed as reduction in cell viability upto 10 ug/ml incubated for 18 to 24 hrs by PrestoBlue reagent based assay; format: toxicity; settings: time 18-24 hrs, dose < 10 µg/ml
[1] = Toxicity in H3N2-A/HK/68 influenza virus-immunized BALB/c mouse model assessed as body weight change at 1 to 10 ug,INH administered 48hrs prior to influenza challenge and measured after 18 days; settings: in vivo, inhaled_or_intranasal, 432 h, dose 1-10 µg, time 18 day
Toll-like receptor 4 [2] = target: T1, Toll-like receptor 4 (Homo sapiens, UniProt O00206); experiment: Agonist activity at TLR4 in human MONO-MAC-6 cells assessed as induction of MIP-1beta release incubated for 24 hrs by ELISA; format: cell-based
Mus musculus [3] = species: Mus musculus; experiment: Immuno-adjuvant activity in H3N2-split A/Victoria/210/2009 influenza virus-immunized BALB/c mouse model assessed as increase in influenza specific serum IgG1 titer level at 0.001 to 0.1 ug,IM and measured after 14 days by ELISA; format: functional, organism-based; settings: dose 0.001-0.1 µg, time 14.0 day
[4] = Toxicity in H3N2-split A/Victoria/210/2009 influenza virus-immunized BALB/c mouse model assessed as reactogenicity at 0.001 to 0.1 ug,IM administered on day 0 and 14 and measured after 28 days; settings: in vivo, 672 h, dose 0.001-0.1 µg, time 28 day
Toll-like receptor 4 [5] = target: T2, Toll-like receptor 4 (Mus musculus, UniProt Q9QUK6); experiment: Agonist activity at TLR4 in mouse RAW264.7 cells assessed as induction of MIP-1beta release incubated for 24 hrs by ELISA; format: cell-based
T2 sequence (Q9QUK6 whole entry): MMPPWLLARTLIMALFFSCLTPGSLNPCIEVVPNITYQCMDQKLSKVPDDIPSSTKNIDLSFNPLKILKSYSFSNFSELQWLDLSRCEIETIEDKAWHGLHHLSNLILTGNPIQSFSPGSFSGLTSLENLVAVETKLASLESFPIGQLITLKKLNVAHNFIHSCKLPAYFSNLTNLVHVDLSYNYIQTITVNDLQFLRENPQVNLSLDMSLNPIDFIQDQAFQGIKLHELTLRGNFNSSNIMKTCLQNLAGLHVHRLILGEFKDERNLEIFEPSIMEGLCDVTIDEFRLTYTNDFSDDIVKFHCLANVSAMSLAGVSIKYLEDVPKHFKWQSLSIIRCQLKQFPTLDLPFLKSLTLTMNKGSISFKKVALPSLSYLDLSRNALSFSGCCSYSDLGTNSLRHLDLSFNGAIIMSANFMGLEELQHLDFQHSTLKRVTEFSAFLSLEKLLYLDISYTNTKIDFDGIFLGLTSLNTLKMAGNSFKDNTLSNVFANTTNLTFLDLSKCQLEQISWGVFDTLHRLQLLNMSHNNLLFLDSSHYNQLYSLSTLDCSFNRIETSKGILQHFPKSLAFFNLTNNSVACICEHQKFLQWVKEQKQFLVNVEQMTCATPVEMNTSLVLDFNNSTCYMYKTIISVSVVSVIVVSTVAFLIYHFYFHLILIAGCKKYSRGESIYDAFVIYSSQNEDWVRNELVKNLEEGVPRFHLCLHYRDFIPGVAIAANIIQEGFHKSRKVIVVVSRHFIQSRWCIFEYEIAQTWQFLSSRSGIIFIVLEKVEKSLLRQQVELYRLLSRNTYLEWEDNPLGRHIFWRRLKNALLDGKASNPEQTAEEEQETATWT

Mus musculus [6] = experiment: Immuno-adjuvant activity in H3N2-A/HK/68 influenza virus-immunized BALB/c mouse model assessed as increase in survival rate at 1 ug,INH administered 48hrs prior to influenza challenge and measured after 18 days; format: functional; settings: dose 1 µg, time 18 day
Toll-like receptor 4 [7] = target: T1, Toll-like receptor 4; experiment: Agonist activity at TLR4 in human PBMC cells assessed as induction of TNFalpha release incubated for 20 hrs by ELISA; format: cell-based
Mus musculus [8] = experiment: Immuno-adjuvant activity in H3N2-split A/Victoria/210/2009 influenza virus-immunized BALB/c mouse model assessed as increase in influenza specific serum IgG1 titer level at 0.001 to 0.1 ug,IM administered on day 0 and 14 and measured after 28 days by ELISA; format: functional, organism-based; settings: dose 0.001-0.1 µg, time 28.0 day
Mus musculus [9] = species: Mus musculus; experiment: Immuno-adjuvant activity in H3N2-split A/Victoria/210/2009 influenza virus-immunized BALB/c mouse model assessed as increase in influenza specific serum IgG2a titer level at 0.001 to 0.1 ug,IM and measured after 14 days by ELISA; format: functional, organism-based; settings: dose 0.001-0.1 µg, time 14.0 day
[10] = Toxicity in H3N2-A/HK/68 influenza virus-immunized BALB/c mouse model assessed as change in body temperature at 1 to 10 ug,INH administered 48hrs prior to influenza challenge and measured after 18 days; settings: in vivo, inhaled_or_intranasal, 432 h, dose 1-10 µg, time 18 day
Mus musculus [11] = experiment: Immuno-adjuvant activity in H3N2-split A/Victoria/210/2009 influenza virus-immunized BALB/c mouse model assessed as increase in influenza specific serum IgG titer level at 0.001 to 0.1 ug,IM administered on day 0 and 14 and measured after 28 days by ELISA; format: functional, organism-based; settings: dose 0.001-0.1 µg, time 28.0 day
Toll-like receptor 4 [12] = target: T2, Toll-like receptor 4; experiment: Agonist activity at mouse TLR4 in human HEK-Blue mTLR4 cells assessed as NF-kappaB activation incubated for 48 hrs by SEAP reporter gene based Quanti-blue assay; format: cell-based
Toll-like receptor 4 [13] = target: T1, Toll-like receptor 4; experiment: Agonist activity at TLR4 in human PBMC cells assessed as induction of IL-1beta release incubated for 20 hrs by ELISA; format: cell-based
[14] = Toxicity in H3N2-split A/Victoria/210/2009 influenza virus-immunized BALB/c mouse model assessed as abnormality at 0.001 to 0.1 ug,IM administered on day 0 and 14 and measured after 28 days; settings: in vivo, 672 h, dose 0.001-0.1 µg, time 28 day
Toll-like receptor 4 [15] = target: T1, Toll-like receptor 4; experiment: Agonist activity at TLR4 in human PBMC cells assessed as induction of RANTES release incubated for 20 hrs by ELISA; format: cell-based
[16] = Toxicity in H3N2-A/HK/68 influenza virus-immunized BALB/c mouse model assessed as disease index at 1 to 10 ug,INH administered 48hrs prior to influenza challenge and measured after 18 days; settings: in vivo, inhaled_or_intranasal, 432 h, dose 1-10 µg, time 18 day
Toll-like receptor 4 [17] = target: T1, Toll-like receptor 4; experiment: Agonist activity at human TLR4 in human HEK-Blue hTLR4 cells assessed as NF-kappaB activation incubated for 48 hrs by SEAP reporter gene based Quanti-blue assay; format: cell-based
Toll-like receptor 4 [18] = target: T1, Toll-like receptor 4; experiment: Agonist activity at TLR4 in human PBMC cells assessed as induction of MIP-1beta release incubated for 20 hrs by ELISA; format: cell-based
[19] = Aqueous stability of the compound assessed as drug degradation at 40 degreeC and measured upto 12 months by LC-MS analysis; format: physicochemical; settings: buffer, 8760 h
Mus musculus [20] = species: Mus musculus; experiment: Immuno-adjuvant activity in H3N2-split A/Victoria/210/2009 influenza virus-immunized BALB/c mouse model assessed as increase in influenza specific serum IgG titer level at 0.001 to 0.1 ug,IM and measured after 14 days by ELISA; format: functional, organism-based; settings: dose 0.001-0.1 µg, time 14.0 day
[21] = Aqueous stability of the compound assessed as drug degradation at 2 to 8 degreeC and measured upto 12 months by LC-MS analysis; format: physicochemical; settings: buffer, 8760 h
Mus musculus [22] = experiment: Immuno-adjuvant activity in H3N2-A/HK/68 influenza virus-immunized BALB/c mouse model assessed as increase in survival rate at 10 ug,INH administered 48hrs prior to influenza challenge and measured after 18 days; format: functional; settings: dose 10 µg, time 18 day
Mus musculus [23] = experiment: Immuno-adjuvant activity in H3N2-split A/Victoria/210/2009 influenza virus-immunized BALB/c mouse model assessed as increase in influenza specific serum IgG2a titer level at 0.001 to 0.1 ug,IM administered on day 0 and 14 and measured after 28 days by ELISA; format: functional, organism-based; settings: dose 0.001-0.1 µg, time 28.0 day
[24] = Aqueous stability of the compound assessed as drug degradation at 2 to 8 degreeC and measured upto 12 months by RP-HPLC analysis; format: physicochemical; settings: buffer, 8760 h

T1 sequence (O00206 whole entry): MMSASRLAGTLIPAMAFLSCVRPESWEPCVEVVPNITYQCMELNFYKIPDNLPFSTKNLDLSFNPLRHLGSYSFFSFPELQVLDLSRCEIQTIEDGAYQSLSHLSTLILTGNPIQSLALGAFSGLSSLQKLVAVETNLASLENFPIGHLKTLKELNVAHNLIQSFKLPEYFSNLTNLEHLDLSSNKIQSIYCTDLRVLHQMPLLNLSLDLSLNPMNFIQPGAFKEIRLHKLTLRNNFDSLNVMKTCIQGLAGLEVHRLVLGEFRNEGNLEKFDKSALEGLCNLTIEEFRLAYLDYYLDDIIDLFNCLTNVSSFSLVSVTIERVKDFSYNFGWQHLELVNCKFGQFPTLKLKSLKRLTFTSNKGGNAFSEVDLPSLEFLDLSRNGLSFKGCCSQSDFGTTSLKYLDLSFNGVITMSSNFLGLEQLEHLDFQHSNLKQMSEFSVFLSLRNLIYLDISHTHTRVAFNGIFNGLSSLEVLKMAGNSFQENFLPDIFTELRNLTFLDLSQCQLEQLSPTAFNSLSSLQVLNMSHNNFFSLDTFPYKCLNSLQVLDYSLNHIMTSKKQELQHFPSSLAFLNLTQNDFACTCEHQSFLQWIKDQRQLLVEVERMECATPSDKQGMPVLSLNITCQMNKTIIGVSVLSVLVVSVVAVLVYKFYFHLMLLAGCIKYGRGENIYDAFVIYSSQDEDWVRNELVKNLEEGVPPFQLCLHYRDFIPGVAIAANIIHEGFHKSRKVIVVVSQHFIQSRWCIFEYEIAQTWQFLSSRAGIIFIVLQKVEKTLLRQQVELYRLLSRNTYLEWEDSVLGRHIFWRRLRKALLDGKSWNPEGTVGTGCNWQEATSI

Structure (SMILES) | Activity (PBMC) | EC50 (Toll-like receptor 4 [2]) [nM] | Activity (Mus musculus [3]) | Activity [4] | EC50 (Toll-like receptor 4 [5]) [nM] | EC50 (Toll-like receptor 4 [7]) [nM] | Activity (Mus musculus [8]) | Activity (Mus musculus [11]) | EC50 (Toll-like receptor 4 [12]) [nM] | EC50 (Toll-like receptor 4 [13]) [nM] | Activity [14] | EC50 (Toll-like receptor 4 [15]) [nM] | EC50 (Toll-like receptor 4 [17]) [nM] | EC50 (Toll-like receptor 4 [18]) [nM] | Stability [19] | Activity (Mus musculus [20]) | Stability [21] | Activity (Mus musculus [23]) | Stability [24] | other results
CCCCCCCCCCC[C@H](CC(=O)N[C@H]1[C@H](OC[C@H](NC(=O)C[C@@H](CCCCCCCCCCC)OC(=O)CCCCCCCCC)C(=O)O)O[C@H](CO)[C@@H](OP(=O)(O)O)[C@@H]1OC(=O)C[C@@H](CCCCCCCCCCC)OC(=O)CCCCCCCCC)OC(=O)CCCCCCCCC | Non-Toxic | – | – | – | – | – | – | – | – | – | – | – | – | – | – | – | – | – | – | –
CCCCCCCCCCC[C@H](CC(=O)N[C@H]1[C@H](OC[C@H](NC(=O)C[C@@H](CCCCCCCCCCC)OCCCCCCCCCC)C(=O)O)O[C@H](CO)[C@@H](OP(=O)(O)O)[C@H]1NC(=O)C[C@@H](CCCCCCCCCCC)OCCCCCCCCCC)OCCCCCCCCCC.CCN(CC)CC | Non-Toxic | 0.38 | Dose-Dependent Effect | Non-Toxic | 0.02 | 2.6 | Active | Active | 0.15 | 0.28 | Non-Toxic | 0.14 | 7.86 | 0.13 | Stable | Dose-Dependent Effect | Stable | Active | Stable | Activity [1]: Non-Toxic; Survival (Mus musculus [6]): 40%; Activity (Mus musculus [9]): Dose-Dependent Effect; Activity [10]: Non-Toxic; Activity [16]: Non-Toxic; Survival (Mus musculus [22]): 80%
CCCCCCCCCCCCCC(=O)O[C@H](CCCCCCCCCCC)CC(=O)O[C@@H]1[C@@H](NC(=O)C[C@H](CCCCCCCCCCC)OC(=O)CCCCCCCCCCCCC)[C@H](OC[C@H]2O[C@H](O)[C@H](NC(=O)C[C@H](O)CCCCCCCCCCC)[C@@H](OC(=O)C[C@H](O)CCCCCCCCCCC)[C@@H]2O)O[C@H](CO)[C@H]1OP(=O)(O)O | – | 0.99 | – | – | 0.49 | 10.4 | – | – | 1.4 | 2.11 | – | 1.92 | 6.23 | 0.76 | – | – | – | – | – | –
CCCCCCCCCCC[C@H](CC(=O)NCCO[C@@H]1O[C@H](CO)[C@@H](OP(=O)(O)O)[C@@H](NC(=O)C[C@@H](CCCCCCCCCCC)OC(=O)CCCCCCCCC)[C@H]1NC(=O)C[C@@H](CCCCCCCCCCC)OC(=O)CCCCCCCCC)OC(=O)CCCCCCCCC.CCN(CC)CC | – | 1.65 | – | – | 0.26 | 28 | – | – | 0.37 | 8.77 | – | 3.68 | 91.9 | 1.61 | Stable | – | Stable | – | Stable | –
CCCCCCCCCCCCCCCC(=O)O[C@H](CCCCCCCCCCC)CC(=O)N[C@@H]1[C@@H](O)[C@H](O)[C@@H](CO[C@@H]2O[C@H](CO)[C@@H](OP(=O)(O)O)[C@H](OC(=O)C[C@@H](CCCCCCCCCCC)OC(=O)CCCCCCCCCCCCC)[C@H]2NC(=O)C[C@@H](CCCCCCCCCCC)OC(=O)CCCCCCCCCCC)O[C@@H]1O | – | 6.37 | – | – | 3.73 | 200 | – | – | 6.54 | 42.4 | – | 31.5 | 246 | 23.7 | – | – | – | – | – | –
CCCCCCCCCCC[C@H](CC(=O)N[C@H]1[C@H](OC[C@H](NC(=O)C[C@@H](CCCCCCCCCCC)OCCCCCCCCCC)C(=O)O)O[C@H](CO)[C@@H](OS(=O)(=O)O)[C@H]1NC(=O)C[C@@H](CCCCCCCCCCC)OCCCCCCCCCC)OCCCCCCCCCC.CCN(CC)CC | – | 0.65 | Dose-Dependent Effect | Non-Toxic | 0.04 | 6.88 | Active | Active | 0.68 | 0.97 | Non-Toxic | 0.46 | 26.3 | 0.24 | Stable | Dose-Dependent Effect | Stable | Active | Stable | –
